Assay results as given in patent US20260325504A1, “Genetically Engineered Human Pituitary Corticotroph Tumor Organoids Exhibit Divergent Responses to Selective Glucocorticoid Receptor Modulators” (Corcept Therapeutics Incorporated, priority 2022, published 2026).
“Also recorded” adds a separate entry of the source.

System: PitNET organoids
Assay: PitNET organoid proliferation, apoptosis and cell death (summary)
Format: cell-based, human
Details: for tumor cell apoptosis / cell death: PitNET organoids
Protocol: iPSCs were stained for pituitary specific hormones including luteinizing hormone (LH), follicle-stimulating hormone (FSH), growth hormone (GH), prolactin (PRL), ACTH, cytokeratin 8/18 (CAM5.2), pituitary transcription factor PIT-1 and neuroendocrine marker Synaptophysin (Table 5). Cultures were immunostained for proliferation marker EdU (Click-IT EdU Alexa Fluor 555 Imaging Kit, Thermo Fisher Scientific C10338). Antibody dilutions were determined based on manufacturer guidelines and antibody titration (Table 5). Staining was conducted according to previously published protocols. Briefly, organoids and iPSCs grown in 8-well glass bottom chamber slides were fixed using 3.7% formaldehyde, washed with DPBS, permeabilized with 0.5% Triton X-100 (SIGMA X-100, PBS-T, 20 min at room temperature), washed with 0.01% PBS-T, and blocked with 2% donkey serum (Jackson Immuno Research 017-000-121) for 1 hour at room temperature. After blocking, primary antibodies were added and incubated overnight at 4° C. […] Fluorescence intensity was quantified as the percentage of marker-positive cells versus total cells, using Nikon Elements Software (Version 5.21.05). Proliferation for each iPSC line was quantified as the percentage of EdU-positive cells versus total cells.
Nuclear Morphometric Analysis (NMA) using treated organoids was performed based on a published protocol that measures cell viability based on the changes in nuclear morphology of the cells using nuclear stain Hoechst or DAPI [31]. Images of organoid nuclei were analyzed using the ImageJ Nuclear Irregularity Index (NII) plugin for key parameters that included cell area, radius ratio, area box, aspect, and roundness. Using the published spreadsheet template, the NII of each cell was calculated with the following formula: NII=Aspect−Area Box+Radius Ratio+Roundness. […] The percentage of cells in each NII classification category were calculated and plotted as a histogram using GraphPad Prism. […]

SMILES | tumor cell apoptosis / cell death | tumor cell apoptosis / cell death (listed as Relacorilant) | PitNET organoid proliferation (compared to relacorilant)
Cn1cc(S(=O)(=O)N2CCC3=Cc4c(cnn4-c4ccc(F)cc4)C[C@]3(C(=O)c3cc(C(F)(F)F)ccn3)C2)cn1 [relacorilant, (R)-(1-(4-fluorophenyl)-6-((1-methyl-1H-pyrazol-4-yl)sulfonyl)-4,4a,5,6,7,8-hexahydro-1H-pyrazolo[3,4-g]isoquinolin-4a-yl) (4-(trifluoromethyl)pyridin-2-yl) methanone] | induced SSTR5 expression and PitNET organoid apoptosis; also recorded: induced PitNET cell death | induces SSTR5 and tumor cell apoptosis | 
CC#C[C@]1(O)CC[C@H]2[C@@H]3CCC4=CC(=O)CCC4=C3[C@@H](c3ccc(N(C)C)cc3)C[C@@]21C [mifepristone, 11β-(4-dimethylaminophenyl)-17ß-hydroxy-17α-(1-propynyl)-estra-4,9-dien-3-one] |  |  | preferentially induced the expression of SSTR2, ACTH secretion and PitNET organoid proliferation
